These results are taken from ChEMBL document CHEMBL5465560, “Selectivity Literature for EUbOPEN Chemogenomic Library” (2024).

Assay [1] concerns the target Casein kinase I isoform alpha (Homo sapiens, UniProt P48729). The assay is described as follows: Selectivity interaction (Ambit KINOMEscan and KiNATiv profiling in Jurkat cells) EUB0000090b CSNK1A1. In kind it is cell-based. The settings on record: at 1 µM.
The target in assay [2] is Cyclin-dependent kinase 11B (Homo sapiens) (UniProt P21127). Conditions: at 10 µM.
Sequence of Cyclin-dependent kinase 11B (Homo sapiens) (P21127 whole entry): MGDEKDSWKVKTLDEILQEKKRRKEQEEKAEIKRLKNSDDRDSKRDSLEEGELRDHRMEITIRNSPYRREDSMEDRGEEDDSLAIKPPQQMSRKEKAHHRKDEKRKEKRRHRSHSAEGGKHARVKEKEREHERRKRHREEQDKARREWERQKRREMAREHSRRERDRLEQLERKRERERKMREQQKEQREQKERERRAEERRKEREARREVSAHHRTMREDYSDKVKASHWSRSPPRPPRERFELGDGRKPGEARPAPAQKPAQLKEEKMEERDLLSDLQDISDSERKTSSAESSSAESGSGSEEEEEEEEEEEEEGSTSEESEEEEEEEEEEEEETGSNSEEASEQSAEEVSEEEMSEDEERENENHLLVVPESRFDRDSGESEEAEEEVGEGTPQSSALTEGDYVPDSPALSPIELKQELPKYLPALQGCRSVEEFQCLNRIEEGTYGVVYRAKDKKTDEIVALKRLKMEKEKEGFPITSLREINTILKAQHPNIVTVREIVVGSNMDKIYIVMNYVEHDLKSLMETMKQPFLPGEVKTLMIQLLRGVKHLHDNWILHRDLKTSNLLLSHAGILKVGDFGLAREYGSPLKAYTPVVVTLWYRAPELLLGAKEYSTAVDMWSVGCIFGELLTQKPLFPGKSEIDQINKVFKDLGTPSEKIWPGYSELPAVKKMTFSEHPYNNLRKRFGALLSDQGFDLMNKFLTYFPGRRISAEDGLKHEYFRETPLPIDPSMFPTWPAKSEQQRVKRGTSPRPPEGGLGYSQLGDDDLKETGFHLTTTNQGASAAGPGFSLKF
The target of assay [3] is T1, Dual specificity mitogen-activated protein kinase kinase 7 (Homo sapiens) (UniProt O14733).
T1 sequence (whole entry): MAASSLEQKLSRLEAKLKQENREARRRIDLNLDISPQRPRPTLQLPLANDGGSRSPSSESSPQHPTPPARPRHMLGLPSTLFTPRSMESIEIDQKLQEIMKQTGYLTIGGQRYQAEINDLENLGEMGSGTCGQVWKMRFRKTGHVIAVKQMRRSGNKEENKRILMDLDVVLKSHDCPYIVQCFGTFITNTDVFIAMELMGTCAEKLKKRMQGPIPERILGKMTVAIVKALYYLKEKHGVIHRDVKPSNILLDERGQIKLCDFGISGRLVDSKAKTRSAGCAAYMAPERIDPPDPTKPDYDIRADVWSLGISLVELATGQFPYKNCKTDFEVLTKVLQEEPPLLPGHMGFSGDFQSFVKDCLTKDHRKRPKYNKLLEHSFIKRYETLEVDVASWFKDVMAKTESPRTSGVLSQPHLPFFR
The assay is described as follows: Selectivity interaction (Millipore kinase profiler) EUB0000124b MAP2K7. Conditions: at 10 µM.

In assay [4] the target is Interleukin-1 receptor-associated kinase 1 (Homo sapiens) (UniProt P51617). The assay is described as follows: Selectivity interaction (KinomeScan (DiscoverX)) EUB0001049a IRAK1. Conditions: at 1 µM.
Sequence of Interleukin-1 receptor-associated kinase 1 (Homo sapiens) (P51617 whole entry, looked up): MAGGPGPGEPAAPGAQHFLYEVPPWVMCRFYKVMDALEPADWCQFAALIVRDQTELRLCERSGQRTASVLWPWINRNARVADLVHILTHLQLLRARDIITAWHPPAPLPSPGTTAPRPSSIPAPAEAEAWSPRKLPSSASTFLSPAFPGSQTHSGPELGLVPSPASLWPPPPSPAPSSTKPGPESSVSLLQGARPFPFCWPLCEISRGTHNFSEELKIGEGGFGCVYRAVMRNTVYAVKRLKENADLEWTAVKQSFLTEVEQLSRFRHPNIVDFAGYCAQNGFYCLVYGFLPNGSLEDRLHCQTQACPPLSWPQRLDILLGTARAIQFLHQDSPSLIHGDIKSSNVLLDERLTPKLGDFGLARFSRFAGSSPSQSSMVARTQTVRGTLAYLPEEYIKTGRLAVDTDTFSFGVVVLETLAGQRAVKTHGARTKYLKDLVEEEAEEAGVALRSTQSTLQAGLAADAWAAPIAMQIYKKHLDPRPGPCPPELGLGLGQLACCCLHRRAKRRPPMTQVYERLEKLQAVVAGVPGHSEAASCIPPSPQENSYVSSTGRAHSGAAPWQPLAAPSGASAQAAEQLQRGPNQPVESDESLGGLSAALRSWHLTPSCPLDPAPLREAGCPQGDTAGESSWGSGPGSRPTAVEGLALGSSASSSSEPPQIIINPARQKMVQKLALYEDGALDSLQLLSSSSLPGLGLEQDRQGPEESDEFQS
Assay [5] deals with Phosphatidylinositol 4-phosphate 5-kinase type-1 gamma (Homo sapiens) (UniProt O60331). The assay is described as follows: Selectivity interaction (KinomeScan (DiscoverX)) EUB0001049a PIP5K1C. The settings on record: at 1 µM.
Sequence of Phosphatidylinositol 4-phosphate 5-kinase type-1 gamma (Homo sapiens) (O60331 whole entry): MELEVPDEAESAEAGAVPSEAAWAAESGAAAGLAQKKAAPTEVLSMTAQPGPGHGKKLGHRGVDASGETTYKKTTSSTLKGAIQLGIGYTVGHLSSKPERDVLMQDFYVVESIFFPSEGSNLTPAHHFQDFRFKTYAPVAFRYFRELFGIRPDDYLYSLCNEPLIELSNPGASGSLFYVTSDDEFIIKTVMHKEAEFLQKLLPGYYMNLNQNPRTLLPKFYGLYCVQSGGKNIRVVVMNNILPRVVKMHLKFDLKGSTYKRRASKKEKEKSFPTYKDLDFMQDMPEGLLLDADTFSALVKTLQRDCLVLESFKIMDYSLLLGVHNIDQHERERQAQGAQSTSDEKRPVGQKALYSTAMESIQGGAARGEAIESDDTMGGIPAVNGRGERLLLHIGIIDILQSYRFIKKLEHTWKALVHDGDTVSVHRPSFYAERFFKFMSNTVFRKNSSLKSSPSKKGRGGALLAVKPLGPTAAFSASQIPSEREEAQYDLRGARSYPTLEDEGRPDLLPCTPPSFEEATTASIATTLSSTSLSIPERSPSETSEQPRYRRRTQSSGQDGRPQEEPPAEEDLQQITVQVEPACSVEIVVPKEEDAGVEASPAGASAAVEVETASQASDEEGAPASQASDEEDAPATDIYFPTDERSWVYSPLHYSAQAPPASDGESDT
In assay [6] the target is T2, Serine/threonine-protein kinase LATS1 (Homo sapiens) (UniProt O95835).
T2 sequence (whole entry): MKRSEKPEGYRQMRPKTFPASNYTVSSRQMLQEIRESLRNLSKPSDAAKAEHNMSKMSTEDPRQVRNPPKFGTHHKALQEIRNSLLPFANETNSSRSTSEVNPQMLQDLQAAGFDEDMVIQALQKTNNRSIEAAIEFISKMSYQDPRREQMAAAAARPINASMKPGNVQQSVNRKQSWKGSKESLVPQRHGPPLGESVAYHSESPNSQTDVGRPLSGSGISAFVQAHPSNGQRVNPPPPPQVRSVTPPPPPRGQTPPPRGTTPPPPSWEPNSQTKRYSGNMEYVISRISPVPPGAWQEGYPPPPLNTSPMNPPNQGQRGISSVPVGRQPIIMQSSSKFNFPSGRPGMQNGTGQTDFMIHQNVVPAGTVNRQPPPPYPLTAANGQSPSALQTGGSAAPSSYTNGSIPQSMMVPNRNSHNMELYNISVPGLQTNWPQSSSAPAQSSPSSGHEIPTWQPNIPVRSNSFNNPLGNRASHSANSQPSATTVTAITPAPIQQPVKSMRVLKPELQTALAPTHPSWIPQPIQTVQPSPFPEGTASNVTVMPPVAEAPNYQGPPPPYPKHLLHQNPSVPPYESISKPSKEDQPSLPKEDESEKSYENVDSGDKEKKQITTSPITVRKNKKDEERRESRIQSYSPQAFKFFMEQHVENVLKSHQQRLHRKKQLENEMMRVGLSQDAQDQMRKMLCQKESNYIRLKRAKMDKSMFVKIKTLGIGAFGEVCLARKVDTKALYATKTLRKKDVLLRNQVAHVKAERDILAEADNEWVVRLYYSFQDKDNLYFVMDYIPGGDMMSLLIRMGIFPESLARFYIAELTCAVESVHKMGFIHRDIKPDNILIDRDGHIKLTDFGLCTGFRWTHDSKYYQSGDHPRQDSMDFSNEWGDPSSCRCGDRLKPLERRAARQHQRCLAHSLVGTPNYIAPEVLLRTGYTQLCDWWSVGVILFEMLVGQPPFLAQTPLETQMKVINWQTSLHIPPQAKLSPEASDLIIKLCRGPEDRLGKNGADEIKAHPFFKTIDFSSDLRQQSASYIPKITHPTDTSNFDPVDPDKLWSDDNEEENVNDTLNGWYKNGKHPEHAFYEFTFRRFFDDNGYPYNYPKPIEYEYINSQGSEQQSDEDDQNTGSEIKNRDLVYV
The assay can be described thus: Selectivity interaction (KinomeScan (DiscoverX)) EUB0000695a LATS1. The settings on record: at 100 nM.

Assay [7] deals with T3, SNF-related serine/threonine-protein kinase (Homo sapiens) (UniProt Q9NRH2).
T3 sequence (whole entry): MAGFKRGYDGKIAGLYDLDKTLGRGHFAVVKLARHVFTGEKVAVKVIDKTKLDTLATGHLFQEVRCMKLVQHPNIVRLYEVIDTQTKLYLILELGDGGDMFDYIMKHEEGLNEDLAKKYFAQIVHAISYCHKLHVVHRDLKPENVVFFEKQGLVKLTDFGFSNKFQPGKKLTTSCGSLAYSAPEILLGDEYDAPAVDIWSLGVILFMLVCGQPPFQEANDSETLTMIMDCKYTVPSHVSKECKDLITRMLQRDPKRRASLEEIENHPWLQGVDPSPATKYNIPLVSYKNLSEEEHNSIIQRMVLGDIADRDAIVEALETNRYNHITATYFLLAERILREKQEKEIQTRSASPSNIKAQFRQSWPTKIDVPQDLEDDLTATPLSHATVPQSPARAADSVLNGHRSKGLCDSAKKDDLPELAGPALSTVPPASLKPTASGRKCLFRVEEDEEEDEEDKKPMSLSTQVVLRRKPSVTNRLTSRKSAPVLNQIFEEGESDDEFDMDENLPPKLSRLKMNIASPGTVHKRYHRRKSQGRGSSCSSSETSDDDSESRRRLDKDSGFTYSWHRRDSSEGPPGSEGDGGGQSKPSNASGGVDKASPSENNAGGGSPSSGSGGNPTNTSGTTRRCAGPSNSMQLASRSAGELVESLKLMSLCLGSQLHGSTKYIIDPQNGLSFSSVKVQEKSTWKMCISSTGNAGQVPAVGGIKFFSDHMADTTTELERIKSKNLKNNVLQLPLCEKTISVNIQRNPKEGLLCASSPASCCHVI
The assay is described as follows: Selectivity interaction (KinomeScan (DiscoverX)) EUB0000666a SNRK. The settings on record: at 10 µM.

The target of assay [8] is Mitogen-activated protein kinase 14 (Homo sapiens, UniProt Q16539). The assay is described as follows: Selectivity interaction (Kinase panel (KiNativ target engagement assay in Jurkat cells)) EUB0001635a MAPK14. Format: cell-based. Conditions: Selectivity number of off-targets 0.0, Selectivity number of targets 233.0, Source Knowledge https://www.sciencedirect.com/science/article/pii/S2451945619300674?via%3Dihub, at 1 µM.
Sequence of Mitogen-activated protein kinase 14 (Q16539 whole entry): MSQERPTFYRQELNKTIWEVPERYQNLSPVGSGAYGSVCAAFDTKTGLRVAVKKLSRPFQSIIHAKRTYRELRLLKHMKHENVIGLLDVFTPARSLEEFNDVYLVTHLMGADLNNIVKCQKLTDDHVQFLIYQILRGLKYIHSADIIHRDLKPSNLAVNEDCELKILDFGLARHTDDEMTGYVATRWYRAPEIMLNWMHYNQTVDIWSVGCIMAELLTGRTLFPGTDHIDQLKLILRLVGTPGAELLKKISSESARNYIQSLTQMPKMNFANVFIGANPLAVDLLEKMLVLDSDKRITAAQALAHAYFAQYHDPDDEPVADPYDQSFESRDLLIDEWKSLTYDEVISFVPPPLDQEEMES

Sequence of Casein kinase I isoform alpha (P48729 2-337 limits assumed): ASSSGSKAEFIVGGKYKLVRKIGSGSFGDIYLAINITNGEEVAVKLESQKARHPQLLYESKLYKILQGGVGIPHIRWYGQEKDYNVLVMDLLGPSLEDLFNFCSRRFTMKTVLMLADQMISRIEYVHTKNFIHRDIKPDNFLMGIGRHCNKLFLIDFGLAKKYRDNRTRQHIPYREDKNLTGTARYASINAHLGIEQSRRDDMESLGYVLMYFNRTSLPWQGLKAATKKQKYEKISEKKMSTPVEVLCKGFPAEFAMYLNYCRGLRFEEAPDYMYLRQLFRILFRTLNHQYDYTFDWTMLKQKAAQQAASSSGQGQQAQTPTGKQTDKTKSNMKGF

As to `CN(C)C/C=C/C(=O)Nc1ccc(C(=O)N2CCCC(Nc3ncc(Cl)c(-c4c[nH]c5ccccc45)n3)C2)cc1` (stereo not drawn), the % of control in assay [1] stood at 51%.

`CCN(CC)CCCCNc1ncc2cc(-c3cc(OC)cc(OC)c3)c(NC(=O)NC(C)(C)C)nc2n1` showed a % of control in assay [2] of 100%.

In the case of `CC(=O)Nc1cccc(-n2c(=O)n(C3CC3)c(=O)c3c(Nc4ccc(I)cc4F)n(C)c(=O)c(C)c32)c1`, in assay [3], the % of control was 109%.

Take `COc1cc(Nc2nc(C)cc(-c3cnn4nc(OC)ccc34)n2)cc(C(F)(F)F)c1`: the % of control in assay [4] came out at 91%; in assay [5], 94%.

As for `Cc1cc(F)c(C(=O)Nc2cccc(-c3nncn3C(C)C)n2)cc1-n1cnc(C2CC2)c1`, in assay [6], the % of control was determined as 86%.

Turning to `O=C(NOC[C@H](O)CO)c1ccc(F)c(F)c1Nc1ccc(I)cc1F`, the % of control in assay [7] was determined as 100%.

Consider `C=CC(=O)Nc1ccc(C(=O)Nc2[nH]nc3c2CN(C(=O)N[C@H](CN(C)C)c2ccccc2)C3(C)C)cc1`, for which the % of engagement in assay [8] was -12.8%.
